Experimental data: ChEMBL document CHEMBL4823287, “Design and synthesis of novel 5-alkynyl pyrimidine nucleosides derivatives: Influence of C-6-substituent on antituberculosis activity” (2021)
≈ marks a conversion by molar mass, not a printed value.

How the values were obtained:
[1] = tested on: Mycobacterium tuberculosis; test: Antimycobacterial activity against Mycobacterium bovis BCG assessed as inhibition of bacterial growth at 1 ug/ml measured by microplate alamar blue assay; format: functional; conditions: variant bovis BCG
[2] = tested on: Mycobacterium tuberculosis; test: Antimycobacterial activity against Mycobacterium bovis BCG assessed as inhibition of bacterial growth at measured by microplate alamar blue assay; format: functional; conditions: variant bovis BCG
[3] = tested on: Mycobacterium tuberculosis; test: Antimycobacterial activity against Mycobacterium bovis BCG assessed as inhibition of bacterial growth at 50 ug/ml measured by microplate alamar blue assay; format: functional; conditions: variant bovis BCG
[4] = tested on: Mycobacterium tuberculosis; test: Antimycobacterial activity against Mycobacterium bovis BCG assessed as inhibition of bacterial growth at 1 to 5 ug/ml measured by microplate alamar blue assay; format: functional, variant bovis BCG; conditions: dose 1-5 µg/ml; at 1 to 5 µg/mL
[5] = tested on: Mycobacterium tuberculosis; test: Antimycobacterial activity against Mycobacterium bovis BCG assessed as inhibition of bacterial growth at 25 ug/ml measured by microplate alamar blue assay; format: functional; conditions: variant bovis BCG
[6] = tested on: Mycobacterium tuberculosis; test: Antimycobacterial activity against Mycobacterium bovis BCG assessed as inhibition of bacterial growth at 100 ug/ml measured by microplate alamar blue assay; format: functional; conditions: variant bovis BCG
[7] = tested on: Mycobacterium tuberculosis; test: Antimycobacterial activity against Mycobacterium bovis BCG assessed as inhibition of bacterial growth at 10 ug/ml measured by microplate alamar blue assay; format: functional; conditions: variant bovis BCG
[8] = tested on: Mycobacterium tuberculosis; test: Antimycobacterial activity against Mycobacterium bovis BCG assessed as inhibition of bacterial growth at 5 ug/ml measured by microplate alamar blue assay; format: functional; conditions: variant bovis BCG

SMILES | inhibition at 1 µg/mL [1] | MIC50 [2] | inhibition at 50 µg/mL [3] | inhibition (INH) [4] | inhibition at 25 µg/mL [5] | inhibition at 100 µg/mL [6] | inhibition at 10 µg/mL [7] | inhibition at 5 µg/mL [8]
Cc1c(C#CC(O)c2ccccc2)c(=O)[nH]c(=O)n1[C@@H]1O[C@H](CO)[C@@H](O)[C@H]1O (stereo partly specified) | 100% | 0.7 µg/mL (≈ 1.8 µM) |  |  |  |  |  | 
CCCCC#Cc1c(C)n([C@@H]2O[C@H](CO)[C@@H](O)[C@H]2O)c(=O)[nH]c1=O |  | 18.6 µg/mL (≈ 55 µM) | 100% | 10% | 60% |  |  | 
CC#Cc1c(C)n([C@@H]2O[C@H](CO)[C@@H](O)[C@H]2O)c(=O)[nH]c1=O |  | 50 µg/mL (≈ 169 µM) | 50% |  |  | 90% | 0% | 
Cc1c(C#CCC(C)C)c(=O)[nH]c(=O)n1[C@@H]1O[C@H](CO)[C@@H](O)[C@H]1O |  | 18.9 µg/mL (≈ 55.9 µM) | 100% | 10% | 60% |  |  | 
Cc1c(C#C[Si](C)(C)C)c(=O)[nH]c(=O)n1[C@@H]1O[C@H](CO)[C@@H](O)[C@H]1O |  |  |  |  |  | 0% |  | 
CO[C@H]1/C=C/O[C@@]2(C)Oc3c(C)c(O)c4c(O)c(c(/C=N/N5CCN(C)CC5)c(O)c4c3C2=O)NC(=O)/C(C)=C\C=C\[C@H](C)[C@H](O)[C@@H](C)[C@@H](O)[C@@H](C)[C@H](OC(C)=O)[C@@H]1C [RIFAMPIN] | 100% | 0.8 µg/mL (≈ 0.972 µM) |  |  |  |  |  | 
NNC(=O)c1ccncc1 [ISONIAZID] | 100% | 0.9 µg/mL (≈ 6.56 µM) |  |  |  |  |  | 
Cc1c(C#CC2CC2)c(=O)[nH]c(=O)n1[C@@H]1O[C@H](CO)[C@@H](O)[C@H]1O |  | 2.1 µg/mL (≈ 6.52 µM) |  | 50% |  | 90% | 80% | 
Cc1c(C#Cc2ccccc2)c(=O)[nH]c(=O)n1[C@@H]1O[C@H](CO)[C@@H](O)[C@H]1O |  | 2.2 µg/mL (≈ 6.14 µM) | 75% | 50% |  | 90% | 75% | 
N[C@@H]1CONC1=O [CYCLOSERINE] |  | 5.1 µg/mL (≈ 50 µM) |  |  |  |  | 71% | 50%
Cc1c(C#CC2CCCCC2)c(=O)[nH]c(=O)n1[C@@H]1O[C@H](CO)[C@@H](O)[C@H]1O |  | 14.7 µg/mL (≈ 40.3 µM) | 100% | 10% | 70% |  |  | 
CCCC#Cc1c(C)n([C@@H]2O[C@H](CO)[C@@H](O)[C@H]2O)c(=O)[nH]c1=O |  | < 50 µg/mL | 60% |  |  | 90% | 0% | 
CCC#Cc1c(C)n([C@@H]2O[C@H](CO)[C@@H](O)[C@H]2O)c(=O)[nH]c1=O |  | 50 µg/mL (≈ 161 µM) | 50% |  |  | 90% | 0% | 
CCCCCCC#Cc1c(C)n([C@@H]2O[C@H](CO)[C@@H](O)[C@H]2O)c(=O)[nH]c1=O |  | < 50 µg/mL | 60% |  |  | 90% |  | 
